From patent US11629156B2, “7-phenylethylamino-4H-pyrimido[4,5-d][1,3]oxazin-2-one compounds as mutant IDH1 and IDH2 inhibitors” (Eli Lilly and Company, priority 2016, dated 2023)

Test system: wild-type IDH1 (αKG) in HT1080 cells
Assay: HT1080 cell assay, intracellular αKG
Format: cell-based
Conditions: highest concentration tested shown if curve did not reach 50%

| SMILES | IC50 |
| --- | --- |
| C=CC(=O)N1CCN(C(CC2CC2)c2ccc([C@H](C)Nc3ncc4c(n3)N(C)C(=O)OC4)cc2)CC1 (single isomer, unassigned) [Example 3] | > 0.2 µM |
| C=CC(=O)N1CCN(C(CC2CC2)c2ccc([C@H](C)Nc3ncc4c(n3)N(C)C(=O)OC4)cc2)CC1 (single isomer, unassigned) [Example 4] | > 0.2 µM |
| C=CC(=O)N1CCN(C(CC(C)C)c2ccc([C@H](C)Nc3ncc4c(n3)N(CC)C(=O)OC4)cc2)CC1 (single isomer, unassigned) [Example 7] | > 0.2 µM |
| C=CC(=O)N1CCN(C(CC(C)C)c2ccc([C@H](C)Nc3ncc4c(n3)N(CC)C(=O)OC4)cc2)CC1 (single isomer, unassigned) [Example 8] | > 0.2 µM |
| C=CC(=O)N1CCN(C(CC2CC2)c2ccc([C@H](C)Nc3cc4c(cn3)COC(=O)N4C)cc2)CC1 (single isomer, unassigned) [Example 9] | > 20 µM |
| C=CC(=O)N1CCN(C(CC2CC2)c2ccc([C@H](C)Nc3cc4c(cn3)COC(=O)N4C)cc2)CC1 (single isomer, unassigned) [Example 10] | > 20 µM |
| C=CC(=O)N1CCN(C(CC)c2ccc([C@H](C)Nc3ncc4c(n3)N(CC)C(=O)OC4)cc2)CC1 (single isomer, unassigned) [Example 11] | > 20 µM |
| C=CC(=O)N1CCN(C(CC)c2ccc([C@H](C)Nc3ncc4c(n3)N(CC)C(=O)OC4)cc2)CC1 (single isomer, unassigned) [Example 12] | > 20 µM |
| C=CC(=O)N1CCN(C(CCOC)c2ccc([C@H](C)Nc3ncc4c(n3)N(CC)C(=O)OC4)cc2)CC1 (single isomer, unassigned) [Example 13] | > 20 µM |
| C=CC(=O)N1CCN(C(CCOC)c2ccc([C@H](C)Nc3ncc4c(n3)N(CC)C(=O)OC4)cc2)CC1 (single isomer, unassigned) [Example 14] | > 20 µM |
